# Counter-ions that a name gives are not always drawn.
# Test system: SUDHL10 cells
# Assay: Induction of cytotoxicity in SUDHL10 cells (Assay 6)
# Type: cell-based
# Details: 5 h, CellTiter-Glo; read-out: Cytotox SUDHL10 IC50 (median)
# Procedure, shortened: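 Cells plated overnight at 37 °C, then exposed to compound for 5 h in a humidified incubator at 37 °C. Viability read by CellTiter-Glo luminescence after 15 min shaking at room temperature; cell-free medium served as control.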
row,Structure (SMILES),IC50 [µM]
1,"CCc1c2c(nn1C)C(CCC1CCOCC1)OCCCCn1c(C(=O)O)c(CCCOc3cccc4cc(F)ccc34)c3ccc(Cl)c-2c31 (racemic) [Example 60, (rac)-4-chloro-3-ethyl-7-{3-[(6-fluoronaphthalen-1-yl)oxy]propyl}-2-methyl-(15-rac)-[2-(oxan-4-yl)ethyl]-2,10,11,12,13,15-hexahydropyrazolo[4′,3′:9,10][1,6]oxazacycloundecino[8,7,6-hi]indole-8-carboxylic Acid]",0.087
2,"CCc1c2c(nn1C)C(CCN1CCN(C)CC1)OCCCCn1c(C(=O)O)c(CCCOc3cccc4cc(F)ccc34)c3ccc(Cl)c-2c31 (racemic) [Example 68, 4-chloro-3-ethyl-7-{3-[(6-fluoronaphthalen-1-yl)oxy]propyl}-2-methyl-(15-rac)-[2-(4-methylpiperazin-1-yl)ethyl]-2,10,11,12,13,15-hexahydropyrazolo[4′,3′:9,10][1,6]oxazacycloundecino[8,7,6-hi]indole-8-carboxylic Acid—N-ethylethanamine Salt (Mixture 1 of Stereoisomers)]",0.15
3,"CCc1c2c(nn1C)C(CCN1CCN(C)CC1)OCCCCn1c(C(=O)O)c(CCCOc3cccc4cc(F)ccc34)c3ccc(Cl)c-2c31 (racemic) [Example 71, (rac)-4-chloro-3-ethyl-7-{3-[(6-fluoronaphthalen-1-yl)oxy]propyl}-2-methyl-(15-rac)-[2-(4-methylpiperazin-1-yl)ethyl]-2,10,11,12,13,15-hexahydropyrazolo[4′,3′:9,10][1,6]oxazacycloundecino[8,7,6-hi]indole-8-carboxylic Acid—N-ethylethanamine Salt (Mixture 2 Od Stereoisomers)]",0.036
4,"CCc1c2c(nn1C)C(CCN1CC(F)(F)C1)OCCCCn1c(C(=O)O)c(CCCOc3cccc4cc(F)ccc34)c3ccc(Cl)c-2c31 (single isomer, unassigned; (+)) [Example 78, (+)-4-chloro-15-[2-(3,3-difluoroazetidin-1-yl)ethyl]-3-ethyl-7-{3-[(6-fluoronaphthalen-1-yl)oxy]propyl}-2-methyl-2,10,11,12,13,15-hexahydropyrazolo[4′,3′:9,10][1,6]oxazacycloundecino[8,7,6-hi]indole-8-carboxylic Acid—N-ethylethanamine Salt]",0.012
5,"CCc1c2c(nn1C)C(CCN1CCOCC1)OCCCCn1c(C(=O)O)c(CCCOc3cccc4ccccc34)c3ccc(F)c-2c31 (single isomer, unassigned; enantiomer 1) [Example 11, 3-ethyl-4-fluoro-2-methyl-15-[2-(morpholin-4-yl)ethyl]-7-{3-[(naphthalen-1-yl)oxy]propyl}-2,10,11,12,13,15-hexahydropyrazolo[4′,3′:9,10][1,6]oxazacycloundecino[8,7,6-hi]indole-8-carboxylic Acid—N-ethylethanamine Salt (Enantiomer 1)]",0.25
6,"CCC1OCCCCn2c(C(=O)O)c(CCCOc3cccc4ccccc34)c3ccc(Cl)c(c32)-c2c1nn(C)c2C (single isomer, unassigned; enantiomer 1) [Example 29, (+)-4-chloro-15-ethyl-2,3-dimethyl-7-{3-[(naphthalen-1-yl)oxy]propyl}-2,10,11,12,13,15-hexahydropyrazolo[4′,3′:9,10][1,6]oxazacycloundecino[8,7,6-hi]indole-8-carboxylic Acid—N-ethylethanamine Salt (Enantiomer 1)]",3.9
7,"CCc1c2c(nn1C)C(C(F)(F)F)OCCCCn1c(C(=O)O)c(CCCOc3cccc4ccccc34)c3ccc(Cl)c-2c31 (single isomer, unassigned; enantiomer 1) [Example 33, (+)-4-chloro-3-ethyl-2-methyl-7-{3-[(naphthalen-1-yl)oxy]propyl}-15-(trifluoromethyl)-2,10,11,12,13,15-hexahydropyrazolo[4′,3′:9,10][1,6]oxazacycloundecino[8,7,6-hi]indole-8-carboxylic Acid—N-ethylethanamine Salt (Enantiomer 1)]",3.7
8,"Cc1c2c(nn1C)C(C1CC1)OCCCCn1c(C(=O)O)c(CCCOc3cccc4ccccc34)c3ccc(Cl)c-2c31 (single isomer, unassigned; enantiomer 1) [Example 35, (+)-4-chloro-15-cyclopropyl-2,3-dimethyl-7-{3-[(naphthalen-1-yl)oxy]propyl}-2,10,11,12,13,15-hexahydropyrazolo[4′,3′:9,10][1,6]oxazacycloundecino[8,7,6-hi]indole-8-carboxylic Acid N-ethylethanamine Salt (Enantiomer 1)]",6.7
9,"CCc1c2c(nn1C)C(C1CC1)OCCCCn1c(C(=O)O)c(CCCOc3cccc4cc(F)ccc34)c3ccc(Cl)c-2c31 (single isomer, unassigned; enantiomer 1) [Example 39, (+)-4-chloro-15-cyclopropyl-3-ethyl-7-{3-[(6-fluoronaphthalen-1-yl)oxy]propyl}-2-methyl-2,10,11,12,13,15-hexahydropyrazolo[4′,3′:9,10][1,6]oxazacycloundecino[8,7,6-hi]indole-8-carboxylic Acid—N-ethylethanamine Salt (Enantiomer 1)]",1.4
10,"CCc1c2c(nn1C)C(CCOC)OCCCCn1c(C(=O)O)c(CCCOc3cccc4cc(F)ccc34)c3ccc(Cl)c-2c31 (single isomer, unassigned; enantiomer 1) [Example 42, (+)-4-chloro-3-ethyl-7-{3-[(6-fluoronaphthalen-1-yl)oxy]propyl}-15-(2-methoxyethyl)-2-methyl-2,10,11,12,13,15-hexahydropyrazolo[4′,3′:9,10][1,6]oxazacycloundecino[8,7,6-hi]indole-8-carboxylic Acid—N-ethylethanamine Salt (Enantiomer 1)]",0.066
11,"CCc1c2c(nn1C)C(CC(C)(C)O)OCCCCn1c(C(=O)O)c(CCCOc3cccc4cc(F)ccc34)c3ccc(Cl)c-2c31 (single isomer, unassigned; enantiomer 1) [Example 53, (+)-4-chloro-3-ethyl-7-{3-[(6-fluoronaphthalen-1-yl)oxy]propyl}-15-(2-hydroxy-2-methylpropyl)-2-methyl-2,10,11,12,13,15-hexahydropyrazolo[4′,3′:9,10][1,6]oxazacycloundecino[8,7,6-hi]indole-8-carboxylic Acid—N-ethylethanamine Salt (Enantiomer 1)]",0.19
12,"CCc1c2c(nn1C)C(CCN1CCC(F)(F)C1)OCCCCn1c(C(=O)O)c(CCCOc3cccc4cc(F)ccc34)c3ccc(Cl)c-2c31 (single isomer, unassigned; enantiomer 1) [Example 56, 4-chloro-15-[2-(3,3-difluoropyrrolidin-1-yl)ethyl]-3-ethyl-7-{3-[(6-fluoronaphthalen-1-yl)oxy]propyl}-2-methyl-2,10,11,12,13,15-hexahydropyrazolo[4′,3′:9,10][1,6]oxazacycloundecino[8,7,6-hi]indole-8-carboxylic Acid—N-ethylethanamine Salt (Enantiomer 1)]",0.039
13,"CCc1c2c(nn1C)C(CCC1CCOCC1)OCCCCn1c(C(=O)O)c(CCCOc3cccc4cc(F)ccc34)c3ccc(Cl)c-2c31 (single isomer, unassigned; enantiomer 1) [Example 63, (+)-4-chloro-3-ethyl-7-{3-[(6-fluoronaphthalen-1-yl)oxy]propyl}-2-methyl-15-[2-(oxan-4-yl)ethyl]-2,10,11,12,13,15-hexahydropyrazolo[4′,3′:9,10][1,6]oxazacycloundecino[8,7,6-hi]indole-8-carboxylic Acid—N-ethylethanamine Salt (Enantiomer 1)]",0.067
14,"CCc1c2c(nn1C)C(CCC(C)(C)O)OCCCCn1c(C(=O)O)c(CCCOc3cccc4cc(F)ccc34)c3ccc(Cl)c-2c31 (single isomer, unassigned; enantiomer 1) [Example 75, (+)-4-chloro-3-ethyl-7-{3-[(6-fluoronaphthalen-1-yl)oxy]propyl}-15-(3-hydroxy-3-methylbutyl)-2-methyl-2,10,11,12,13,15-hexahydropyrazolo[4′,3′:9,10][1,6]oxazacycloundecino[8,7,6-hi]indole-8-carboxylic Acid—N-ethylethanamine Salt (Enantiomer 1)]",0.0097

# Same assay, conditions: Homo sapiens, SU-DHL10, 5 h, 5 h, CellTiter-Glo; read-out: Cytotox SUDHL10 IC50 (median)
row,Structure (SMILES),IC50 [µM]
1,"CCc1c2c(nn1C)C(CCN1CCC(F)(F)C1)OCCCCn1c(C(=O)O)c(CCCOc3cccc4cc(F)ccc34)c3ccc(Cl)c-2c31 (racemic) [Example 55, (rac)-4-chloro-(15-rac)-[2-(3,3-difluoropyrrolidin-1-yl)ethyl]-3-ethyl-7-{3-[(6-fluoronaphthalen-1-yl)oxy]propyl}-2-methyl-2,10,11,12,13,15-hexahydropyrazolo[4′,3′:9,10][1,6]oxazacycloundecino[8,7,6-hi]indole-8-carboxylic acid—2-hydroxypropane-1,2,3-tricarboxylic Acid Salt]",0.068
2,"Cc1c2c(nn1C)C(CCN1CCOCC1)OCCCCn1c(C(=O)O)c(CCCOc3cccc4cc(F)ccc34)c3ccc(Cl)c-2c31 (single isomer, unassigned; enantiomer 1) [Example 17, 4-chloro-7-{3-[(6-fluoronaphthalen-1-yl)oxy]propyl}-2,3-dimethyl-15-[2-(morpholin-4-yl)ethyl]-2,10,11,12,13,15-hexahydropyrazolo[4′,3′:9,10][1,6]oxazacycloundecino[8,7,6-hi]indole-8-carboxylic Acid—N-ethylethanamine (Enantiomer 1)]",0.0093
3,"Cc1c2c(nn1C)C(CCN1CCOCC1)OCCCCn1c(C(=O)O)c(CCCOc3cccc4cc(F)ccc34)c3ccc(F)c-2c31 (single isomer, unassigned; enantiomer 1) [Example 20, 4-fluoro-7-{3-[(6-fluoronaphthalen-1-yl)oxy]propyl}-2,3-dimethyl-15-[2-(morpholin-4-yl)ethyl]-2,10,11,12,13,15-hexahydropyrazolo[4′,3′:9,10][1,6]oxazacycloundecino[8,7,6-hi]indole-8-carboxylic Acid—N-ethylethanamine (Enantiomer 1)]",0.041
